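All cell lines were grown in 96-well plates and treated with compound for 48 hours. At the TGI there is no net growth.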
Experiments:
Assay in all cases: NCI anticancer screen, dose series, 48 h
IGROV1 ovarian = system: IGROV1 ovarian
DU-145 prostate = system: DU-145 prostate
A549 NSCLC = system: A549 NSCLC
HT29 colon = system: HT29 colon
SNB-19 CNS = system: SNB-19 CNS
COLO 205 colon = system: COLO 205 colon
U251 CNS = system: U251 CNS
K-562 leukemia = system: K-562 leukemia
TK-10 renal = system: TK-10 renal
BT-549 breast = system: BT-549 breast
M14 melanoma = system: M14 melanoma
A498 renal = system: A498 renal
CAKI-1 renal = system: CAKI-1 renal
MDA-N = system: MDA-N
OVCAR-5 ovarian = system: OVCAR-5 ovarian
SF-268 CNS = system: SF-268 CNS
HCT-116 colon = system: HCT-116 colon
SNB-75 CNS = system: SNB-75 CNS
NCI-H226 lung = system: NCI-H226 lung

| Structure (SMILES) | TGI (IGROV1 ovarian) [µM] | TGI (DU-145 prostate) [µM] | TGI (A549 NSCLC) [µM] | TGI (HT29 colon) [µM] | TGI (SNB-19 CNS) [µM] | TGI (COLO 205 colon) [µM] | TGI (U251 CNS) [µM] | TGI (K-562 leukemia) [µM] | TGI (TK-10 renal) [µM] | TGI (BT-549 breast) [µM] | TGI (M14 melanoma) [µM] | TGI (A498 renal) [µM] | TGI (CAKI-1 renal) [µM] | TGI (MDA-N) [µM] | TGI (OVCAR-5 ovarian) [µM] | TGI (SF-268 CNS) [µM] | TGI (HCT-116 colon) [µM] | TGI (SNB-75 CNS) [µM] | TGI (NCI-H226 lung) [µM] |
| --- | --- | --- | --- | --- | --- | --- | --- | --- | --- | --- | --- | --- | --- | --- | --- | --- | --- | --- | --- |
| N#Cc1cc(N(CCCl)CCCl)c([N+](=O)[O-])cc1[N+](=O)[O-] | > 100 | > 100 | > 100 | > 100 | > 100 | > 100 | > 100 | > 100 | > 100 | > 100 | > 100 | > 100 | 69.8 | > 100 | > 100 | > 100 | > 100 |  |  |
| O=[N+]([O-])c1ccc(N/N=C(\c2ccccc2)c2ccccn2)nc1 | 20.5 | 36.8 | 24.2 | > 100 | > 42.5 | > 60 | > 81.8 | > 100 |  | 87.1 | 13.8 | > 100 | 29.1 | > 100 | 85.1 | 35.5 | 29.8 | 28.4 |  |
| COc1cc([C@@H]2c3cc4c(cc3[C@@H](OC3OC5COC(C)OC5C(OC(=O)CN5CCN(C)CC5)C3OC(=O)CN3CCN(C)CC3)C3COC(=O)[C@@H]32)OCO4)cc(OC)c1OC(=O)CN1CCN(C)CC1 (stereo not given in full) | > 100 | > 100 |  | > 100 | > 100 | > 100 | > 100 | > 100 | > 100 | > 100 | > 100 |  | > 100 | > 100 | > 100 | > 100 | > 100 | 84.9 | > 100 |
| CCOC(=O)c1c[nH]cc1-c1cn(S(=O)(=O)c2ccccc2)cc1C | 77.7 | > 100 | > 100 | 52.8 | > 100 | 42.4 | 85.4 | 86.4 | > 100 | 74.8 | 44.3 | > 10 | 48.4 | 48.4 | > 100 | 78.6 | 58.9 | 63.1 |  |
| O=Nc1sc(=N\O)/c(=N/O)sc1NO | > 100 | > 100 | > 100 | > 100 | > 100 | > 100 | > 100 | > 100 |  | > 100 | > 100 | > 100 | > 100 | > 100 | > 100 |  | > 100 | > 100 | > 100 |
| CNC(=O)C1CCCN1C(=O)C(Cc1cnc[nH]1)NC(=O)C1CCC(=O)N1 (stereo not given) | > 100 | > 100 | > 100 | > 100 | > 100 | > 100 | > 100 | > 100 | > 100 | > 100 | > 100 |  | > 100 | > 100 | > 100 | > 100 | > 100 | > 100 | > 100 |
| CC(C)[Si](OC1=C(C(=O)N(C)c2ccccc2Cl)CCCCC1)(C(C)C)C(C)C | > 100 | > 100 | > 100 | > 100 | > 100 | > 100 | > 100 |  | > 100 | > 100 | > 100 | > 100 | > 100 | > 100 | > 100 | > 100 | > 100 | > 100 | > 100 |
| CN(C)CCNC1=CC(=O)c2nc3ccccc3c3ccnc1c23 | 14.8 | 22.4 | 26.3 | 14.2 | 29.6 | 9.21 | 25.5 | 17.7 | 97.5 | 21.4 | 21.6 |  | 18.9 | 20.7 | 34.1 | 21.5 | 14.8 | 27.8 | 18.8 |
| CCCC(=O)NC(C(=O)OCC)(N1CCOCC1)C(F)(F)F (stereo not given) | > 100 | > 100 | > 100 | > 100 | > 100 | > 100 | > 100 | > 100 | > 100 | > 100 | > 100 |  | > 100 | > 100 | > 100 | > 100 | > 100 | > 100 | > 100 |
| OCCCc1cc(O)c2c(c1)C(CO)C(c1ccc(O)c(O)c1)O2 (stereo not given) | > 100 | > 100 | > 100 | > 100 | > 100 | > 100 | > 100 | > 100 | > 100 | > 100 | > 100 | > 100 | > 100 | > 100 | > 100 | > 100 | > 100 |  | > 100 |
| CCC1c2[nH]c3ccccc3c2C[C@H]2C(=O)N3CCC[C@H]3C(=O)N12 (stereo not given in full) | > 100 | > 100 | > 100 | > 100 | > 100 | > 100 | > 100 | > 100 | > 100 | > 100 | > 100 | > 100 | > 100 | > 100 | > 100 | > 100 | > 100 |  | > 100 |
| COc1cc([C@H]2CC(=O)C[C@@H](c3cc(OC)c(OC)c(OC)c3)C23C(=O)c2ccccc2C3=O)cc(OC)c1OC | > 100 | > 100 | > 100 | > 100 | > 100 | > 100 | > 100 | > 100 | > 100 | > 100 | > 100 |  | > 100 | > 100 | > 100 | > 100 | > 100 | > 100 | > 100 |
| CCC12CC(c3ccccc3)C(C(=O)N1)C(=O)N2 (stereo not given) | > 100 | > 100 | > 100 | > 100 | > 100 | > 100 | > 100 | > 100 |  | > 100 | > 100 | > 100 | > 100 | > 100 | > 100 | > 100 | > 100 | > 100 | > 100 |

Source: PubChem BioAssay (NCI)
